Measurements published in article PMC5327470, “Discovery and Optimization of Novel 5-Indolyl-7-arylimidazo[1,2-a]pyridine-8-carbonitrile Derivatives as Potent Antitubulin Agents Targeting Colchicine-binding Site” (Scientific Reports, 2017).
“Also recorded” adds a separate entry of the source.

Legend:
[1] = test system: microtubules in HT-29 cells; test: Immunofluorescence staining of microtubule network; type: cell-based, human; details: HT-29, 32.5 nM, 12 h, anti-α-tubulin immunostaining
Experimental: After incubation, cells were fixed, reacted with monoclonal anti-tubulin antibody at 4 °C overnight and then reacted with fluorescein isothiocyanate (FITC) conjugated secondary antibody, DAPI was used for nuclear counter-staining, the cellular microtubules were observed under fluorescence microscope (scale bar = 20 μm).
The HT-29 cells were seeded at 1 × 10^4 per well on a 24 wellplate and grown for 24 h. […] Cells in the control group were treated with culture medium. The control and treated cells were fixed with 4% formaldehydein PBS for 30 min at −20 °C, then washed twice with PBS and permeabilized with 0.1% (v/v) Triton X-100 in PBS for 5 min. Then, the cells were blocked with 3% bovine serum albumin(BSA) in PBS for 30 min. The primary α-tubulin antibody wasdiluted (1:100) with 2% BSA in PBS and incubated overnight at 4 °C. The cells were washed with PBS to remove unbound primaryantibody and then cells were incubated with FITC-conjugated antimousesecondary antibody, diluted (1:100) with 2% BSA in PBS, for 2 h at 37 °C. The cells were washed with PBS to remove unbound secondary antibody, nucleus was stained with 4,6-diamino-2-phenolindoldihydrochloride (DAPI) and then, immunofluorescencewas detected using a fluorescence microscope (Olympus,Tokyo, Japan).

[2] = test system: A549 (human lung carcinoma); test: MTT antiproliferative assay, A549; type: cell-based; details: 72 h, mean ± SD
Experimental: (§1) To evaluate the antiproliferative activity, all synthesized derivatives (5a–5v and 7a–7h) were investigated for their activity in vitro against a panel of cancer cell lines including HT-29 (human colon cancer), H460 (human lung cancer), A549 (human lung carcinoma), MKN-45 (human gastric cancer) and SMMC-7721 (human liver cancer) by MTT assay. CA-4 and Crolibulin were served as positive control, and the results expressed as half-maximal inhibitory concentration (IC50). IC50 values are the concentrations that cause 50% inhibition of cancer cell growth (μM). Data represent the mean values ± standard deviation (SD) of independent experiments performed in triplicate.
(§2) Cell lines and culture conditions.The human colon carcinoma cell line HT-29, the human pulmonary carcinoma cell line A549, the human gastric carcinoma cell line MKN-45, the human breast cancer cell line MDA-MB-231 and human heptocarcinoma cellline SMMC-7721were cultured in RPMI-1640 mediumcontaining 10% FBS, 100 U/mL streptomycin and 100 U/mL penicillinat 37 °C in humidified atmosphere with 5% CO2. All of the cells were purchased from the American Type Culture Collection (ATCC, Manassas, VA).
(§3) The antiproliferative activities in vitro of Crolibulin and all the target compounds were determined by an MTT assay. Briefly, cells were seeded into 96-well plates at a density of 1–3 × 10^4/well (depends on the cell growth rate). 24 h later, triplicate wells were treated with media and the agents. After 72 h ofincubation at 37 °C in 5% CO2, the drug containing medium wasremoved and replaced by […] of fresh medium with 5 mg/mLMTT solution. After 4 h of incubation, the medium with MTT was removed, and […] of DMSO was added to each well. The plates were gently agitated until the purple formazan crystals were dissolved, and the OD490 was determinedusing a microplate reader (MK3, Thermo, Germany). The data were calculated and plotted as the percent viability compared to the control. The 50% inhibitory concentration (IC50) was defined as theconcentration that reduced the absorbance of the untreated wells by 50% of the vehicle in the MTT assay.

[3] = test system: HT-29 (human colon cancer); test: MTT antiproliferative assay, HT-29; type: cell-based; details: Homo sapiens, HT-29; MTT, 72 h, mean ± SD; read-out: IC50 (μM) ±SD HT29
Experimental: as §1, §2, §3

HT-29 cells = test: Cell cycle phase distribution by flow cytometry; type: cell-based, human; details: 24 h
Experimental: The structural similarities between the target compounds (5a–5v and 7a–7h) with CA-4 and Crolibulin, as well as the promising cytotoxic activity led us to hypothesize that these compounds exert their antiproliferative properties through inhibition of tubulin dynamics, thus inducing mitotic arrest in cancer cells. […] Controls were treated with drug vehicle DMSO. […] And this effect is characteristic of antimitotic agents disrupting microtubule assembly.
Data are expressed as the mean ± SEM.
For flow cytometric analysis of DNA content, cells inexponential growth were treated with compound for 24 h[41]. The cells treated with compoundwere collected, washed twice with PBS, and then fixed with 75% alcohol overnight. Then, the cells were washed with PBS and resuspended in 100 μL of PBS, 200 mg/mL RNase wasadded for 30 min to eliminate the interference of RNA, and 20 mL/L propidium iodide (PI; Sigma) was added for 30 min.Then, the cells were washed, and the DNA content wasdetected by flow cytometer (BD Accuri C6).

H460 (human lung cancer) = test: MTT antiproliferative assay, H460; type: cell-based; details: Homo sapiens, NCI-H460, 72 h, MTT, 72 h, mean ± SD
Experimental: as §1, §3

tubulin, colchicine site = test: Colchicine competition (competitive tubulin-binding) assay; details: 0, 1.6, 5 and 15 μM, 1 h at 37 °C, then 5 μM colchicine
Experimental: Figure 6 Colchicine competition assay. […] The fluorescence was measured by Hitachi F-2500 spectrofluorometer.
Then colchicine was added to a final concentration of 5 μM[43]. Fluorescence was determined using a Hitachi F-2500 spectrofluorometer (Tokyo, Japan) at excitation wavelengths of 365 nm and emission wavelengths of 435 nm. Blank values (buffer alone) as background were subtracted from all samples. […] Taxol, not binding in the colchicine-site of tubulin, was added as a negative control.

[4] = test system: human fetal hepatocyte line L02; test: MTT assay on normal cell line L02; type: cell-based; details: non-cancer cell line
Experimental: The drug candidate potency depends not only on its cytotoxicity in malignant cells, but also on its relative lack of toxicity toward normal cells.
as §3

[5] = test system: MKN-45 (human gastric cancer); test: MTT antiproliferative assay, MKN-45; type: cell-based; details: 72 h, mean ± SD, read-out: IC50 (μM) ±SD MKN45
Experimental: as §1, §2, §3

N#Cc1c(-c2ccc(F)cc2Cl)cc(-c2c[nH]c3ccccc23)n2ccnc12 [5k, 7-(2-chloro-4-fluorophenyl)-5-(1H-indol-3-yl)imidazo[1,2-a]pyridine-8-carbonitrile]
effect on microtubule network [1]: cellular microtubule depolymerization
IC50 [2]: 0.57 ± 0.08 µM
IC50 [3]: 0.02 ± 0.001 µM
percent of cells in G1 phase (HT-29 cells; HT-29, 20 nM): 62.84%
percent of cells in G1 phase (HT-29 cells; HT-29, 200 nM): 65.76%
percent of cells in G2 (G2/M) phase (HT-29 cells; HT-29, 200 nM): 14.21%
percent of cells in G1 phase (HT-29 cells; HT-29, 1000 nM): 24.62%
percent of cells in G2 (G2/M) phase (HT-29 cells; HT-29, 1000 nM): 64.07%
IC50 (H460 (human lung cancer)): 0.05 ± 0.008 µM
melting point: 307.9 to 317.3 °C
effect on intrinsic fluorescence of colchicine-tubulin complex (tubulin, colchicine site): decreased the intrinsic colchicine fluorescence in a dose-dependent manner
effect on normal cell L02 [4]: negligible effects; also recorded: minimal
IC50 [5]: 0.14 ± 0.03 µM
